Test results taken from ChEMBL document CHEMBL1201862, “PubChem BioAssay data set” (2004).
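Grown in 96-well plates, cells were treated for 48 hours with each compound at five concentrations. Insufficient inhibition: endpoint recorded as highest concentration tested. At the GI50, growth is halved.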 The source made the active and inactive calls. Rule as the data show it: active = GI50 up to about 1.1 µM and inactive = higher.

Experiments:
Experiment in all cases: DTP human tumour cell line panel, 48 h
M14 = test system: M14
OVCAR-8 = test system: OVCAR-8
SNB-75 = test system: SNB-75
COLO 205 = test system: COLO 205
SK-MEL-5 = test system: SK-MEL-5
CAKI-1 = test system: CAKI-1
T47D = test system: T47D
TK-10 = test system: TK-10
SK-MEL-2 = test system: SK-MEL-2
MDA-N = test system: MDA-N
IGROV-1 = test system: IGROV-1
A549 = test system: A549
NCI/ADR-RES = test system: NCI/ADR-RES
SNB-19 = test system: SNB-19
HT-29 = test system: HT-29
KM12 = test system: KM12
Malme-3M = test system: Malme-3M
ACHN = test system: ACHN
A498 = test system: A498
MCF7 = test system: MCF7
DU-145 = test system: DU-145
UO-31 = test system: UO-31
NCI-H226 = test system: NCI-H226
MDA-MB-435 = test system: MDA-MB-435
786-0 = test system: 786-0
HL-60 = test system: HL-60
U-251 = test system: U-251
HOP-62 = test system: HOP-62
MDA-MB-231 = test system: MDA-MB-231
SF-539 = test system: SF-539
LOX IMVI = test system: LOX IMVI
SW-620 = test system: SW-620
SN12C = test system: SN12C
NCI-H23 = test system: NCI-H23
NCI-H522 = test system: NCI-H522
UACC-62 = test system: UACC-62
OVCAR-4 = test system: OVCAR-4
K562 = test system: K562
SK-OV-3 = test system: SK-OV-3
HCT-15 = test system: HCT-15
HCC 2998 = test system: HCC 2998
CCRF-CEM = test system: CCRF-CEM
SK-MEL-28 = test system: SK-MEL-28
MOLT-4 = test system: MOLT-4
EKVX = test system: EKVX
UACC-257 = test system: UACC-257
OVCAR-5 = test system: OVCAR-5
RPMI-8226 = test system: RPMI-8226
HCT-116 = test system: HCT-116
SF-295 = test system: SF-295
PC-3 = test system: PC-3
HOP-92 = test system: HOP-92
OVCAR-3 = test system: OVCAR-3
RXF 393 = test system: RXF 393
SR = test system: SR
Hs-578T = test system: Hs-578T
NCI-H460 = test system: NCI-H460
SF-268 = test system: SF-268

For `Cc1nc(=O)[nH]c2s/c(=N/C3CCCCC3)n(C3CCCCC3)c(=O)c12`, the GI50 (M14) was > 100 µM (inactive), the GI50 (OVCAR-8) was > 100 µM (inactive) and the GI50 (SNB-75) was > 100 µM (inactive). For the same molecule, the GI50 (COLO 205) was > 100 µM (inactive), the GI50 (SK-MEL-5) was > 100 µM (inactive) and the GI50 (CAKI-1) was > 100 µM (inactive). The GI50 (T47D) was > 100 µM (inactive), the GI50 (TK-10) was > 100 µM (inactive) and the GI50 (SK-MEL-2) was > 100 µM (inactive). The GI50 (MDA-N) was > 100 µM (inactive), the GI50 (IGROV-1) was > 100 µM (inactive) and the GI50 (A549) was > 100 µM (inactive). The GI50 (NCI/ADR-RES) was > 100 µM (inactive), the GI50 (SNB-19) was > 100 µM (inactive) and the GI50 (HT-29) was > 100 µM (inactive). For the same molecule, the GI50 (KM12) was > 100 µM (inactive), the GI50 (Malme-3M) was > 100 µM (inactive) and the GI50 (ACHN) was > 100 µM (inactive). The GI50 (A498) was > 100 µM (inactive), the GI50 (MCF7) was > 100 µM (inactive) and the GI50 (DU-145) was > 100 µM (inactive). The GI50 (UO-31) was > 100 µM (inactive), the GI50 (NCI-H226) was > 100 µM (inactive) and the GI50 (MDA-MB-435) was > 100 µM (inactive). The GI50 (786-0) was > 100 µM (inactive), the GI50 (HL-60) was > 100 µM (inactive) and the GI50 (U-251) was > 100 µM (inactive). The GI50 (HOP-62) was > 100 µM (inactive), the GI50 (MDA-MB-231) was > 100 µM (inactive) and the GI50 (SF-539) was > 100 µM (inactive). The GI50 (LOX IMVI) was > 100 µM (inactive), the GI50 (SW-620) was > 100 µM (inactive) and the GI50 (SN12C) was > 100 µM (inactive). The GI50 (NCI-H23) was > 100 µM (inactive), the GI50 (NCI-H522) was > 100 µM (inactive) and the GI50 (UACC-62) was > 100 µM (inactive). The GI50 (OVCAR-4) was > 100 µM (inactive), the GI50 (K562) was > 100 µM (inactive) and the GI50 (SK-OV-3) was > 100 µM (inactive). For the same molecule, the GI50 (HCT-15) was > 100 µM, the GI50 (HCC 2998) was > 100 µM (inactive) and the GI50 (CCRF-CEM) was > 100 µM (inactive). For the same molecule, the GI50 (SK-MEL-28) was > 100 µM (inactive), the GI50 (MOLT-4) was > 100 µM (inactive) and the GI50 (EKVX) was > 100 µM (inactive). The GI50 (UACC-257) was > 100 µM (inactive), the GI50 (OVCAR-5) was > 100 µM (inactive) and the GI50 (RPMI-8226) was > 100 µM (inactive). For the same molecule, the GI50 (HCT-116) was > 100 µM (inactive), the GI50 (SF-295) was > 100 µM (inactive) and the GI50 (PC-3) was > 100 µM (inactive). The GI50 (HOP-92) was > 100 µM (inactive) and the GI50 (OVCAR-3) was > 100 µM (inactive).
`CSC1=C(C(=O)Nc2ccc(C)cc2)C(N)=NC1=O` was tested, and the GI50 (M14) was > 100 µM (inactive), the GI50 (OVCAR-8) was > 100 µM (inactive) and the GI50 (RXF 393) was > 100 µM (inactive). For the same molecule, the GI50 (SNB-75) was > 100 µM (inactive), the GI50 (COLO 205) was > 100 µM (inactive) and the GI50 (SK-MEL-5) was > 100 µM (inactive). For the same molecule, the GI50 (CAKI-1) was > 100 µM (inactive), the GI50 (T47D) was > 100 µM (inactive) and the GI50 (TK-10) was > 100 µM (inactive). For the same molecule, the GI50 (IGROV-1) was > 100 µM (inactive), the GI50 (NCI/ADR-RES) was > 100 µM (inactive) and the GI50 (SNB-19) was > 100 µM (inactive). The GI50 (SR) was 81.5 µM (inactive), the GI50 (HT-29) was > 100 µM (inactive) and the GI50 (KM12) was > 100 µM (inactive). For the same molecule, the GI50 (ACHN) was > 100 µM (inactive), the GI50 (MCF7) was > 100 µM (inactive) and the GI50 (DU-145) was > 100 µM (inactive). For the same molecule, the GI50 (UO-31) was > 100 µM (inactive), the GI50 (NCI-H226) was > 100 µM (inactive) and the GI50 (MDA-MB-435) was > 100 µM (inactive). The GI50 (786-0) was > 100 µM (inactive), the GI50 (HL-60) was > 100 µM (inactive) and the GI50 (U-251) was > 100 µM (inactive). For the same molecule, the GI50 (MDA-MB-231) was > 100 µM (inactive), the GI50 (SF-539) was > 100 µM (inactive) and the GI50 (LOX IMVI) was > 100 µM (inactive). For the same molecule, the GI50 (SW-620) was > 100 µM (inactive), the GI50 (Hs-578T) was > 100 µM (inactive) and the GI50 (NCI-H23) was > 100 µM (inactive). The GI50 (NCI-H460) was > 100 µM (inactive), the GI50 (UACC-62) was > 100 µM (inactive) and the GI50 (OVCAR-4) was > 100 µM (inactive). For the same molecule, the GI50 (K562) was > 100 µM (inactive), the GI50 (SK-OV-3) was > 100 µM (inactive) and the GI50 (HCT-15) was > 100 µM. The GI50 (HCC 2998) was > 100 µM (inactive), the GI50 (CCRF-CEM) was > 100 µM (inactive) and the GI50 (SK-MEL-28) was > 100 µM (inactive). For the same molecule, the GI50 (MOLT-4) was > 100 µM (inactive), the GI50 (EKVX) was > 100 µM (inactive) and the GI50 (UACC-257) was > 100 µM (inactive). For the same molecule, the GI50 (RPMI-8226) was > 100 µM (inactive), the GI50 (HCT-116) was > 100 µM (inactive) and the GI50 (SF-295) was > 100 µM (inactive). For the same molecule, the GI50 (HOP-92) was > 100 µM (inactive) and the GI50 (SF-268) was > 100 µM (inactive).
With `C=C[C@@]1(C)CC2CC[C@]3(C)C(C)=CC(=O)CC3[C@]2(C)CC1O` (some centres undefined) the GI50 (M14) was > 100 µM (inactive), the GI50 (RXF 393) was > 100 µM (inactive) and the GI50 (COLO 205) was 94.4 µM (inactive). For the same molecule, the GI50 (SK-MEL-5) was > 100 µM (inactive), the GI50 (CAKI-1) was > 100 µM (inactive) and the GI50 (T47D) was > 100 µM (inactive). The GI50 (TK-10) was > 100 µM (inactive), the GI50 (SK-MEL-2) was > 100 µM (inactive) and the GI50 (IGROV-1) was > 100 µM (inactive). For the same molecule, the GI50 (A549) was > 100 µM (inactive), the GI50 (NCI/ADR-RES) was > 100 µM (inactive) and the GI50 (SNB-19) was > 100 µM (inactive). For the same molecule, the GI50 (SR) was > 100 µM (inactive), the GI50 (HT-29) was > 100 µM (inactive) and the GI50 (KM12) was 85.3 µM (inactive). For the same molecule, the GI50 (Malme-3M) was > 100 µM (inactive), the GI50 (ACHN) was > 100 µM (inactive) and the GI50 (A498) was > 100 µM (inactive). For the same molecule, the GI50 (MCF7) was > 100 µM (inactive), the GI50 (DU-145) was > 100 µM (inactive) and the GI50 (UO-31) was > 100 µM (inactive). The GI50 (NCI-H226) was > 100 µM (inactive), the GI50 (MDA-MB-435) was > 100 µM (inactive) and the GI50 (786-0) was > 100 µM (inactive). The GI50 (HL-60) was 32.7 µM (inactive), the GI50 (U-251) was > 100 µM (inactive) and the GI50 (HOP-62) was > 100 µM (inactive). For the same molecule, the GI50 (SF-539) was > 100 µM (inactive), the GI50 (LOX IMVI) was > 100 µM (inactive) and the GI50 (SW-620) was > 100 µM (inactive). The GI50 (SN12C) was > 100 µM (inactive), the GI50 (Hs-578T) was > 100 µM (inactive) and the GI50 (NCI-H23) was > 100 µM (inactive). The GI50 (NCI-H522) was 32.7 µM (inactive), the GI50 (NCI-H460) was > 100 µM (inactive) and the GI50 (UACC-62) was > 100 µM (inactive). For the same molecule, the GI50 (OVCAR-4) was > 100 µM (inactive), the GI50 (K562) was 38 µM (inactive) and the GI50 (SK-OV-3) was > 100 µM (inactive). The GI50 (HCT-15) was > 100 µM, the GI50 (HCC 2998) was > 100 µM (inactive) and the GI50 (CCRF-CEM) was 38.3 µM (inactive). For the same molecule, the GI50 (SK-MEL-28) was > 100 µM (inactive), the GI50 (MOLT-4) was 83.2 µM (inactive) and the GI50 (EKVX) was > 100 µM (inactive). For the same molecule, the GI50 (UACC-257) was > 100 µM (inactive), the GI50 (OVCAR-5) was > 100 µM (inactive) and the GI50 (RPMI-8226) was > 100 µM (inactive). For the same molecule, the GI50 (HCT-116) was 91.4 µM (inactive), the GI50 (SF-295) was > 100 µM (inactive) and the GI50 (PC-3) was > 100 µM (inactive). The GI50 (HOP-92) was > 100 µM (inactive), the GI50 (SF-268) was > 100 µM (inactive) and the GI50 (OVCAR-3) was 67.3 µM (inactive).
